Assay results published in PMC7845544 (Frontiers in Pharmacology, 2021).
“Also recorded” adds a separate entry of the source.

Experiments:
[1] = molecular target: hERG (Homo sapiens, UniProt Q12809); experiment: hERG channel inhibition (Cyprotex); format: biochemical
[2] = tested on: mammalian cell; experiment: Chromosomal aberrations, micronucleus test (MNT); format: cell-based
[3] = tested on: beagle dogs; experiment: 14-day toxicity and toxicokinetics in Beagle dog; format: in vivo
Experimental: (§1) Male and female beagle dogs were received from Beijing Marshall Biotechnology Co., Ltd (Beijing, China) and group housed at Covance (Shanghai, China), except for 5 h each day in stainless steel cages for study-related procedures. […] Blood samples (approximately 1.0 ml) were collected for thyroid hormone analysis on Days 0, prior to dosing, 24 h post dose (prior to second dose on Day 2) and once prior to dosing on Day 14. Blood was collected into serum separator tubes (without anticoagulant), allowed to clot at room temperature, and centrifuged for approximately 10 min in a refrigerated centrifuge at approximately at 3,500 g within 2 h of collection. Serum was harvested and placed in a freezer for subsequent thyroid hormone measurement.

[4] = tested on: beagle dogs; experiment: Serum thyroid hormones in beagle dogs treated for 14 days; format: in vivo
Experimental: as §1

[5] = tested on: human granulosa cells; experiment: Estradiol production by human granulosa cells from individual patients by diagnosis (NOR, ARA, PCOS); format: cell-based
Experimental: Human granulosa cells were prepared from the spent follicular fluid of women undergoing IVF treatment at Boston IVF Center (Waltham, MA, United States) and at Family Fertility Center (Baylor College of Medicine, Houston, TX, United States) following methods previously established ([Breckwoldt et al., 1996]; [Amsterdam et al., 2003]). Institutional review board approval and informed consent from the patients were obtained before collecting the follicular fluid samples. In brief, red blood cells (RBCs) in the follicular aspirate were lyzed using RBC lysis buffer (Quality Biological Inc., Gaithersburg, MD, United States), and washed extensively with PBS and DMEM/F12 containing 5% FBS, fungizone, and the antibiotics penicillin (100 IU/ml) and streptomycin (100 μg/ml). Subsequently, cells from the aspirate were plated in T75 flasks, cultured for 7 days with fresh media being replaced every other day. At the end of the culture period, cells were released from the flask by trypsin and transferred to 96-well plates (5,000 cells/well, Greiner Bio-One). Following 48 h of culture, media in culture wells was replaced with serum free media containing 0.1% BSA and 10^−7 M androstenedione. Following 24 h of serum starvation, cells were stimulated with fresh media (0.1% BSA, 10^−7 M androstenedione) with FSH or compound for 48 h. Supernatant was collected and stored at −80C for determination of estradiol by ELISA.
Clinical definitions of patient sub-populations for patients at Texas Fertility followed guidelines outlined by the Practice Committee of the American Society for Reproductive Medicine ([Practice Committee of the American Society for Reproductive Medicine, 2015]). […] Advanced reproductive age (ARA) was defined as woman of 35 years old or greater in age, based on the definition of advanced maternal age by Society for Maternal-Fetal Medicine. Polycystic Ovarian Syndrome (PCOS) is a patient with two out of the three Rotterdam criteria ([Rotterdam ESHRE/ASRM-Sponsored PCOS Consensus Workshop Group, 2004]) which includes hyperandrogenism (hirsutism or biochemical), oligomenorrhea or amenorrhea, and/or polycystic ovaries on ultrasound.

[6] = tested on: mouse oocytes; experiment: Oocyte quality, IVF and embryo development in mice; format: in vivo
Experimental: Developmental competence of oocytes was determined in mice, as described previously ([Sriraman et al., 2014]). Mice were superovulated with FSH or FSH + TOP5300. […] To measure nuclear status, oocytes were assessed for perivitelline space and first polar body extrusion by phase contrast inverted microscopy. Oocyte maturity was determined by presence of a polar body reflecting oocytes in metaphase-II (MII). Oocytes without a first polar body were assessed as metaphase-I (MI). After the evaluations, oocytes were incubated for 2 h in the media before use in IVF as described ([Sriraman et al., 2014]). Briefly, oocytes were placed in fertilization media (Research Fertilization Media, Cook Medical, Bloomington, IN, United States) under paraffin oil (Calbiochem, San Diego, CA, United States) and incubated at 37°C in 6% CO2, 5% O2 and 89% N2 for 5–6 h with spermatozoa. Spermatozoa were collected from the cauda epididymis of male C57BL/6J mice and were previously incubated for 1 h in fertilization media prior to use (Research Fertilization Media; Cook Medical, Bloomington, IN) for sperm capacitation. The putative zygotes were then washed and placed in 20 μL drops of culture media (Research Cleave Media; Cook Medical, Bloomington, IN, United States) in Petri dishes, or in 60 μL of culture media in Primo Vision microwell group culture dishes (Vitrolife, Gothenberg, Sweden) and checked for fertilization/cleavage the next morning. Embryos were then cultured in the incubator for an additional 3 days to the blastocyst stage and the blastocyst development rate was recorded.

[7] = female dog, 30 mg/Kg, 0h predosing
[8] = female dog, 100 mg/Kg, 0h predosing
[9] = female dog, 1000 mg/Kg, 0h predosing
[10] = male dog, 30 mg/Kg, 0h predosing
[11] = male dog, 100 mg/Kg, 0h predosing
[12] = male dog, 1000 mg/Kg, 0h predosing
[13] = rec-hFSH + TOP5300, 30, 100 mg/kg

Chain of hERG (Q12809 whole entry): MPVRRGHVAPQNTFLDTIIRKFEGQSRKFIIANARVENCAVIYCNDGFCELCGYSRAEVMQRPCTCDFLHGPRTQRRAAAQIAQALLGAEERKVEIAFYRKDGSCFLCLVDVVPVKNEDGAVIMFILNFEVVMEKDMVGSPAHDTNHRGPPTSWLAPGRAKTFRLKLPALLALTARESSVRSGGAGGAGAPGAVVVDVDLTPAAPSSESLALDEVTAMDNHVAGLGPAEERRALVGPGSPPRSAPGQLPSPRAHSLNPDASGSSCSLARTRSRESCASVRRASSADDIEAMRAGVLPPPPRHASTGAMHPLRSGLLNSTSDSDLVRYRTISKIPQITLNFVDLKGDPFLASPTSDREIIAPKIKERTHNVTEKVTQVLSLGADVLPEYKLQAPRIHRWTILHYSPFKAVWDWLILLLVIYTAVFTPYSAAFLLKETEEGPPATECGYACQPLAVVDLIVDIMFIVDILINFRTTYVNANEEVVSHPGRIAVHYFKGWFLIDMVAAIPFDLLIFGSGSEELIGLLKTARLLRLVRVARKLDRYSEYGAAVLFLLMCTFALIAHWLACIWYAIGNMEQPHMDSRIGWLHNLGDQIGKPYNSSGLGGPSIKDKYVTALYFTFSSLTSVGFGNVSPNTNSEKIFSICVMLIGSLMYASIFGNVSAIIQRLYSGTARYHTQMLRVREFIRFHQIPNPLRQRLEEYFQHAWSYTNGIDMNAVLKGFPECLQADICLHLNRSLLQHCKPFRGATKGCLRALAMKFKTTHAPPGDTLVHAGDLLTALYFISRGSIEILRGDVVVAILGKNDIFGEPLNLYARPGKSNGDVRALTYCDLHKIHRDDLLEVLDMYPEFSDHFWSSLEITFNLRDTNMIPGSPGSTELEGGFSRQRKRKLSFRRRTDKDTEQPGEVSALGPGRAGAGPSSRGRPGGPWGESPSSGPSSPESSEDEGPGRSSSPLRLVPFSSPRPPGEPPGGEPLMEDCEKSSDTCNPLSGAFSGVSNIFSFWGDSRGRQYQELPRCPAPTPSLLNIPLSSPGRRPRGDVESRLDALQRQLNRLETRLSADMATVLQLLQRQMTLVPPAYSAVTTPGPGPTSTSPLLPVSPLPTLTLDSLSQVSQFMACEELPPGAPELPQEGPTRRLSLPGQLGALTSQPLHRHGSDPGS

## COc1cc2c(cc1-c1cnn(CCO)c1)-c1c(c(C(=O)N(C)C(C)(C)C)nn1-c1cc(Cl)cc(Cl)c1)CO2 [TOP5300]
[1]
  hERG assay result: inactive
[1]; 10 uM
  hERG channel inhibition @ 10 uM: 16 % inhibition
[2]
  Micronucleus Test (MNT) result: N e g a tiv e; also recorded: inactive
[3]; 14 days, up to 1,000 mg/kg
  mortality or morbidity, dog: no mortality or morbidity occurred
[3]; dog, in vivo, po
  NOAEL, dog: 1,000 mg/kg/day
[4]; dog, 14 days
  TSH, free T3 or free T4 concentrations over the course of treatment: No significant difference
[4]; [7]
  Free T3, fold change over vehicle group: 0.9 fold
  Free T4, fold change over vehicle group: 1.1 fold
  TSH, fold change over vehicle group: 1.2 fold
[4]; female dog, 30 mg/Kg, 24h
  Free T3, fold change over vehicle group: 0.8 fold
  Free T4, fold change over vehicle group: 1.1 fold
  TSH, fold change over vehicle group: 0.9 fold
[4]; female dog, 30 mg/Kg, Day 14
  Free T3, fold change over vehicle group: 1.0 fold
  Free T4, fold change over vehicle group: 0.8 fold
  TSH, fold change over vehicle group: 1.1 fold
[4]; [8]
  Free T3, fold change over vehicle group: 1.0 fold
  Free T4, fold change over vehicle group: 1.2 fold
  TSH, fold change over vehicle group: 1.3 fold
[4]; female dog, 100 mg/Kg, 24h
  Free T3, fold change over vehicle group: 0.9 fold
  Free T4, fold change over vehicle group: 1.1 fold
  TSH, fold change over vehicle group: 1.0 fold
[4]; female dog, 100 mg/Kg, Day 14
  Free T3, fold change over vehicle group: 1.1 fold
  Free T4, fold change over vehicle group: 1.1 fold
  TSH, fold change over vehicle group: 1.1 fold
[4]; [9]
  Free T3, fold change over vehicle group: 1.1 fold
  Free T4, fold change over vehicle group: 1.0 fold
  TSH, fold change over vehicle group: 1.2 fold
[4]; female dog, 1000 mg/Kg, 24h
  Free T3, fold change over vehicle group: 0.9 fold
  Free T4, fold change over vehicle group: 0.9 fold
  TSH, fold change over vehicle group: 0.8 fold
[4]; female dog, 1000 mg/Kg, Day 14
  Free T3, fold change over vehicle group: 1.2 fold
  Free T4, fold change over vehicle group: 0.9 fold
  TSH, fold change over vehicle group: 0.8 fold
[4]; [10]
  Free T3, fold change over vehicle group: 1.3 fold
  Free T4, fold change over vehicle group: 1.0 fold
  TSH, fold change over vehicle group: 0.8 fold
[4]; male dog, 30 mg/Kg, 24h
  Free T3, fold change over vehicle group: 1.3 fold
  Free T4, fold change over vehicle group: 1.0 fold
  TSH, fold change over vehicle group: 0.9 fold
[4]; male dog, 30 mg/Kg, Day 14
  Free T3, fold change over vehicle group: 1.3 fold
  Free T4, fold change over vehicle group: 1.0 fold
  TSH, fold change over vehicle group: 1.0 fold
[4]; [11]
  Free T3, fold change over vehicle group: 1.1 fold
  Free T4, fold change over vehicle group: 0.9 fold
  TSH, fold change over vehicle group: 0.8 fold
[4]; male dog, 100 mg/Kg, 24h
  Free T3, fold change over vehicle group: 1.1 fold
  Free T4, fold change over vehicle group: 0.8 fold
  TSH, fold change over vehicle group: 0.9 fold
[4]; male dog, 100 mg/Kg, Day 14
  Free T3, fold change over vehicle group: 1.1 fold
  Free T4, fold change over vehicle group: 0.9 fold
  TSH, fold change over vehicle group: 1.0 fold
[4]; [12]
  Free T3, fold change over vehicle group: 1.0 fold
  Free T4, fold change over vehicle group: 0.9 fold
  TSH, fold change over vehicle group: 0.7 fold
[4]; male dog, 1000 mg/Kg, 24h
  Free T3, fold change over vehicle group: 0.9 fold
  Free T4, fold change over vehicle group: 0.9 fold
  TSH, fold change over vehicle group: 0.9 fold
[4]; male dog, 1000 mg/Kg, Day 14
  Free T3, fold change over vehicle group: 1.0 fold
  Free T4, fold change over vehicle group: 1.0 fold
  TSH, fold change over vehicle group: 0.8 fold
[5]
  fold higher concentration than rec-hFSH required to stimulate maximum estradiol production: approximately 20 fold
[5]; FSH (20 nM) or TOP5300 (400 nM), advanced reproductive age, mean ± SD
  Estradiol (pg/ml), ARA (n = 6): 10,648 ± 7,338 pg/ml
[5]; FSH (20 nM) or TOP5300 (400 nM), normal ovarian reserve, mean
  Estradiol (pg/ml), NOR (n = 2): 4,829 pg/ml
[5]; FSH (20 nM) or TOP5300 (400 nM), polycystic ovarian disease, mean ± SD
  Estradiol (pg/ml), PCOS (n = 4): 1,276 + 1,563 pg/ml
[6]; 30 mg/kg with low dose FSH
  % of M2 oocytes: comparable to FSH and PMSG
[6]; 100 mg/kg
  M1/M2 oocytes relative to FSH and PMSG group: fewer mature oocytes (M2 oocytes) and more M1 oocytes
[6]; [13]
  fertilization rates vs rec-hFSH-treated mice: no differences
  hatched blastocyst rates vs rec-hFSH-treated mice: no differences
